Assay [1] has as its target 5-HT1F (Homo sapiens, UniProt P30939). Briefly: 5-HT1F binding. The text has this: Further, the compounds of the invention may be tested in binding assays and functional activity assays by well known methods for other physiologically important receptors such as, but not limited to, the hERG channel, other serotonin receptors (specifically 5-HT1A, 5-HT1B, 5-HT1D, 5-HT1E, 5-HT1F receptors, lack of agonist activity at 5-HT2B receptors, 5-HT2C, 5-HT4, 5-HTS, 5-HT6, and 5-HT7 receptors), muscarinic receptors, dopaminergic receptors (specifically D1, D2, and D3), GABAA receptors, adrenergic receptors and monoamine transporters. Certain exemplified compounds are tested at these receptors and are shown to lack significant activity.

In assay [2] the target is T1, 5-HT2A Receptor (Rattus norvegicus, UniProt P14842).
T1 construct: samples of the frontal cortex and cerebellum are removed; from tissue; host or cells: living rat; frontal cortex (cerebellum as null region)
T1 sequence (P14842 whole entry): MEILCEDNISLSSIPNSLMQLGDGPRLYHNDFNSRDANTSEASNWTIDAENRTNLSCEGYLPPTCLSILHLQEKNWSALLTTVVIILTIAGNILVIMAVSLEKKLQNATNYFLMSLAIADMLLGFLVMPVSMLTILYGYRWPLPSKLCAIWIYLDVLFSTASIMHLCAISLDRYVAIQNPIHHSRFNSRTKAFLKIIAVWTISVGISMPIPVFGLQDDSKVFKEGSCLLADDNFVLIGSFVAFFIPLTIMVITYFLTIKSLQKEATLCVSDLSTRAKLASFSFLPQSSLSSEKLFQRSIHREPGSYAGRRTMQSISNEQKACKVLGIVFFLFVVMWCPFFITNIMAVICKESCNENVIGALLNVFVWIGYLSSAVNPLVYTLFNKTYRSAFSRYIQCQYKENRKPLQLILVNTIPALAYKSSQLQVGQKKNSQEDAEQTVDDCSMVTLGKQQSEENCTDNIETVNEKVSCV
As to the kind of experiment: 5-HT2A receptor occupancy in vivo (MDL 100907 tracer). The settings on record: oral gavage, 1 hour before tracer, read-out: 5-HT2A receptor occupancy EC50. The protocol: Briefly, male Sprague-Dawley rats (Harlan Sprague-Dawley, Indianapolis, Ind.) weighing approximately 230-280 grams are given ad lib access to food and water until the beginning of the 3-hour experimental protocol. 1 mg/kg ketanserin (non-selective 5-HT2A antagonist) is used as a positive control to establish assay validity. Test compounds or control are administered by oral gavage in a vehicle comprised of 20% hydroxypropyl beta-cyclodextrin. MDL 100907 ((R) -(+)-α-(2,3-Dimethoxyphenyl)-1-[2-(4-fluorophenyl)ethyl]-4-piperidinemethanol), a selective 5-HT2A antagonist, is used as a tracer. […] It is at the time of tracer administration that receptor occupancy (RO) is considered to be measured. […] The level of MDL 100907 tracer is measured in each cortical and cerebellar sample. RO is calculated using the well-established ratio method which employs a region of high receptor density representative of total binding (frontal cortex) normalized by an area without or with very low levels of receptor (cerebellum). […]
MDL 100907 Analysis: Cortex and cerebellar samples are weighed and placed in conical centrifuge tubes on ice. […] Standards are prepared by adding known quantities of analyte to brain tissue samples from non-treated rats and processing as described above. […]

The target in assay [3] is human recombinant H1 receptor (Homo sapiens, UniProt P35367). Briefly: H1 competition binding assay ([3H]-Pyrilamine SPA). More on the design: expressed in transfected cells. The protocol: [^3H]-Pyrilamine binding experiments are carried out in SPA (scintillation proximity assay) 96-well format. Membranes used in this assay are prepared from HEK-293 cells stably expressing recombinant H1 receptor (human). The incubation is initiated by the addition of a mixture of WGA PVT SPA beads (1 mg/well, Perkin Elmer (MA, USA) RPNQ0001) and 3 μg membranes to assay buffer (67 mM Tris; pH 7.6) containing 3.5 nM [^3H]-Pyrilamine and varying concentrations of the test compound (10 point concentration response curves). Non-specific binding is determined in the presence of 10 μM Triprolidine. Samples are incubated for four hours at room temperature (22° C.) and then read in a Microbeta Trilux.
Chain of human recombinant H1 receptor (P35367 whole entry): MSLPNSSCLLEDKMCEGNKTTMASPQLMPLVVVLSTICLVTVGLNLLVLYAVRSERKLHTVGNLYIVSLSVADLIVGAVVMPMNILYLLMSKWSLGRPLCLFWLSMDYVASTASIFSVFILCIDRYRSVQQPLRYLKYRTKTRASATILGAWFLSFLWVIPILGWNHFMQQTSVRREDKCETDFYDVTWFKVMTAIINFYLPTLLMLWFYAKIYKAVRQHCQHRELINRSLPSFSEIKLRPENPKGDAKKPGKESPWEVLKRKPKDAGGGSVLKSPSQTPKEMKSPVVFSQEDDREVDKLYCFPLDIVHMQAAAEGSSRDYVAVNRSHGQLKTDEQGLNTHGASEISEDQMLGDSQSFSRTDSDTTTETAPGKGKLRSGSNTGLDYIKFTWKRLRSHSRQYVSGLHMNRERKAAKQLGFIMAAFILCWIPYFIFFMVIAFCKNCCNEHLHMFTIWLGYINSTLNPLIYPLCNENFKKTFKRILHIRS
Curves are evaluated using a 4-parameter logistic nonlinear equation to obtain the concentration of competitor causing 50% inhibition of radioligand binding (IC50). Equilibrium dissociation constants (Ki) are calculated according to the equation Ki=IC50/(1+L/Kd), where L equals the concentration of radioligand used in the experiment and Kd equals the equilibrium dissociation constant of the radioligand for the receptor, determined from standard saturation analysis or homologous competition experiments. Reported values for Ki, where n values are indicated, are shown as geometric mean±the standard error of the mean (SEM), with the number of replicate determinations indicated by n. […]

Each structure is given as a SMILES string. pKi: −log10 of the molar value. Counter-ions that a name gives are not always drawn.

Chain of 5-HT1F (P30939 whole entry, species assumed): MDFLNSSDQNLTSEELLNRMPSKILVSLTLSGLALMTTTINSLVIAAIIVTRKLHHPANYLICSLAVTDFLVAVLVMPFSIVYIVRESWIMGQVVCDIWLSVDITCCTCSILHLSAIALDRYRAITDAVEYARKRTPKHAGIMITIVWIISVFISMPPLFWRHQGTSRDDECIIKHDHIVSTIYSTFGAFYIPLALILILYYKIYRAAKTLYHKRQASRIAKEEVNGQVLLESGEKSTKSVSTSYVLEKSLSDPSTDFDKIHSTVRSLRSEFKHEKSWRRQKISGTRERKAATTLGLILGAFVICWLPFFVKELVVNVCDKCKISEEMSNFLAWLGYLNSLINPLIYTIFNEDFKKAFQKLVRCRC

What is called pKi is −log10 of the Ki, conventionally taken in molar units. Turning to `Cc1cc2n(c1)Cc1cc(Cl)ccc1N=C2N1CCN(CC(C)(C)C(=O)O)CC1` [Example 13, 3-[4-(7-Chloro-2-methyl-5H-pyrrolo[2,1-c][1,4]benzodiazepin-11-yl)piperazin-1-yl]-2,2-dimethylpropanoic acid dihydrochloride], the pKi in assay [1] is less than 5.08; in assay [3] it was 7.77. Also, the ED50 in assay [2] stood at 0.27 mg/kg.
